Experimental data from the NIST ThermoML archive (doi:10.1021/je020149l).

Legend:
[1] = 293.15 K; 101.33 kPa; Liquid; Vibrating tube method
[2] = excess molar enthalpy (molar enthalpy of mixing); xn = mol fraction of the nth substance listed; settings: 323.15 K, 101 kPa, Liquid, Flow calorimetry

CC(C)=O [acetone]
Settings | mass density [kg/m3]
[1] | 790.31

CC(C)=O [acetone] + CCCO
[2]
Settings | excess molar enthalpy [kcal/mol]
x2 = 0.025 | 0.0605
x2 = 0.052 | 0.0968
x2 = 0.101 | 0.154
x2 = 0.151 | 0.202
x2 = 0.2 | 0.245
x2 = 0.252 | 0.282
x2 = 0.302 | 0.311
x2 = 0.351 | 0.334
x2 = 0.401 | 0.349
x2 = 0.451 | 0.359
x2 = 0.501 | 0.363
x2 = 0.551 | 0.361
x2 = 0.601 | 0.354
x2 = 0.651 | 0.34
x2 = 0.702 | 0.32
x2 = 0.752 | 0.295
x2 = 0.8 | 0.265
x2 = 0.851 | 0.223
x2 = 0.901 | 0.168
x2 = 0.952 | 0.112
x2 = 0.975 | 0.0803

CC(C)=O [acetone] + CCO
[2]
Settings | excess molar enthalpy [kcal/mol]
x2 = 0.05 | 0.0609
x2 = 0.102 | 0.115
x2 = 0.15 | 0.156
x2 = 0.2 | 0.192
x2 = 0.252 | 0.222
x2 = 0.3 | 0.243
x2 = 0.352 | 0.259
x2 = 0.4 | 0.269
x2 = 0.452 | 0.273
x2 = 0.501 | 0.272
x2 = 0.551 | 0.265
x2 = 0.6 | 0.255
x2 = 0.65 | 0.24
x2 = 0.702 | 0.22
x2 = 0.752 | 0.196
x2 = 0.8 | 0.168
x2 = 0.85 | 0.134
x2 = 0.901 | 0.0937
x2 = 0.95 | 0.0504

C1CCCCC1 [cyclohexane]
Settings | mass density [kg/m3]
[1] | 778.56

C1CCCCC1 [cyclohexane] + CCO
[2]
Settings | excess molar enthalpy [kcal/mol]
x2 = 0.032 | 0.106
x2 = 0.054 | 0.132
x2 = 0.102 | 0.169
x2 = 0.151 | 0.192
x2 = 0.202 | 0.207
x2 = 0.251 | 0.217
x2 = 0.3 | 0.223
x2 = 0.351 | 0.226
x2 = 0.401 | 0.226
x2 = 0.452 | 0.223
x2 = 0.5 | 0.217
x2 = 0.551 | 0.209
x2 = 0.601 | 0.198
x2 = 0.65 | 0.185
x2 = 0.707 | 0.165
x2 = 0.75 | 0.15
x2 = 0.802 | 0.127
x2 = 0.851 | 0.101
x2 = 0.901 | 0.0722
x2 = 0.951 | 0.038

CCO [ethanol]
Settings | mass density [kg/m3]
[1] | 789.29

CCCCCCC [heptane]
Settings | mass density [kg/m3]
[1] | 683.91

CCCCCCC [heptane] + CCCO
[2]
Settings | excess molar enthalpy [kcal/mol]
x2 = 0.01 | 0.0963
x2 = 0.024 | 0.142
x2 = 0.034 | 0.161
x2 = 0.053 | 0.188
x2 = 0.103 | 0.229
x2 = 0.154 | 0.254
x2 = 0.203 | 0.269
x2 = 0.254 | 0.279
x2 = 0.301 | 0.283
x2 = 0.353 | 0.282
x2 = 0.402 | 0.277
x2 = 0.451 | 0.27
x2 = 0.503 | 0.26
x2 = 0.551 | 0.247
x2 = 0.602 | 0.232
x2 = 0.651 | 0.214
x2 = 0.702 | 0.195
x2 = 0.75 | 0.174
x2 = 0.801 | 0.147
x2 = 0.851 | 0.124
x2 = 0.901 | 0.0987
x2 = 0.951 | 0.0717

CCCCCCCC [octane]
Settings | mass density [kg/m3]
[1] | 702.87

CCCCCCCC [octane] + CCCO
[2]
Settings | excess molar enthalpy [kcal/mol]
x2 = 0.027 | 0.202
x2 = 0.053 | 0.254
x2 = 0.103 | 0.31
x2 = 0.15 | 0.337
x2 = 0.208 | 0.359
x2 = 0.254 | 0.367
x2 = 0.301 | 0.37
x2 = 0.352 | 0.367
x2 = 0.401 | 0.363
x2 = 0.452 | 0.351
x2 = 0.5 | 0.337
x2 = 0.55 | 0.32
x2 = 0.602 | 0.297
x2 = 0.652 | 0.268
x2 = 0.702 | 0.242
x2 = 0.752 | 0.214
x2 = 0.802 | 0.181
x2 = 0.852 | 0.148
x2 = 0.901 | 0.106
x2 = 0.95 | 0.0784

CCCCCCCC [octane] + CCO
[2]
Settings | excess molar enthalpy [kcal/mol]
x2 = 0.028 | 0.206
x2 = 0.054 | 0.257
x2 = 0.104 | 0.303
x2 = 0.151 | 0.326
x2 = 0.201 | 0.343
x2 = 0.252 | 0.355
x2 = 0.304 | 0.357
x2 = 0.352 | 0.355
x2 = 0.404 | 0.348
x2 = 0.452 | 0.337
x2 = 0.502 | 0.323
x2 = 0.551 | 0.307
x2 = 0.601 | 0.288
x2 = 0.651 | 0.267
x2 = 0.7 | 0.245
x2 = 0.752 | 0.217
x2 = 0.801 | 0.191
x2 = 0.85 | 0.16
x2 = 0.901 | 0.121
x2 = 0.95 | 0.0813

CCCO [propan-1-ol]
Settings | mass density [kg/m3]
[1] | 803.63
